One assay addresses T1, Cbl (aa49-434) (Homo sapiens, UniProt P22681).
T1 construct: Cbl (aa49-434, in-house); made in house
T1 sequence (P22681 49-434): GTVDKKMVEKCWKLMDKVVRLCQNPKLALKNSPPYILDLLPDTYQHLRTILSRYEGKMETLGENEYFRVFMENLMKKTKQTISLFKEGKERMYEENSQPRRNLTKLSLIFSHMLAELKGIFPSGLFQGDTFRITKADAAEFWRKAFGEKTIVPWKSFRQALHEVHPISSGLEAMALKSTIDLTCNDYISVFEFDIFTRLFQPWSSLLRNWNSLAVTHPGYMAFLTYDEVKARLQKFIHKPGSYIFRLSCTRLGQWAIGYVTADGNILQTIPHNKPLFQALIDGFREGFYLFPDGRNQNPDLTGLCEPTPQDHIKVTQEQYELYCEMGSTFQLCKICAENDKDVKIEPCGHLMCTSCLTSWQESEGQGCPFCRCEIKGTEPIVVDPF
Put plainly: Co-expressed Cbl with BirA biochemical assay (CBL/E2-Ub binding, HTRF). The conditions noted are these: 0.6 nM Cbl co-expressed with BirA, read-out: co-express CBL/E2-Ub-binding assay IC50. An excerpt:
(§1) The assay in the absence of a Cbl-b/Cbl inhibitor, where phosphorylation of Cbl-b/Cbl by the Src kinase allows UbcH5B-Ub to bind to Cbl-b/Cbl and brings the Bodipy-Fluorescein tagged ubiquitin in proximity to the streptavidin-terbium bound to the N-terminal biotinylated Avi-tagged Cbl-b/Cbl. […] The lack of a FRET signal indicates Cbl-b/Cbl is inhibited by the Cbl-b/Cbl inhibitor.
(In general: Time-resolved FRET reads energy transfer from a long-lived donor to a nearby acceptor.)

The next assay deals with T2, Cbl-b (aa36-427) (Homo sapiens, UniProt Q13191).
T2 construct: Cbl-b (aa36-427, in-house); made in house
Put plainly: Co-expressed Cbl-b with BirA biochemical assay (CBLB/E2-Ub binding, HTRF). The conditions noted are these: 0.6 nM Cbl-b co-expressed with BirA, HTRF; read-out: co-express CBLB/E2-Ub-binding assay IC50.
Excerpt: as §1

Results on 19 compounds are retold here after patent US20250163047A1, “HETEROCYCLIC COMPOUNDS, COMPOSITIONS THEREOF, AND METHODS OF TREATMENT THEREWITH” (BeiGene, Ltd., priority 2022, published 2025).

Structures are written as SMILES.

T2 sequence (Q13191 36-427): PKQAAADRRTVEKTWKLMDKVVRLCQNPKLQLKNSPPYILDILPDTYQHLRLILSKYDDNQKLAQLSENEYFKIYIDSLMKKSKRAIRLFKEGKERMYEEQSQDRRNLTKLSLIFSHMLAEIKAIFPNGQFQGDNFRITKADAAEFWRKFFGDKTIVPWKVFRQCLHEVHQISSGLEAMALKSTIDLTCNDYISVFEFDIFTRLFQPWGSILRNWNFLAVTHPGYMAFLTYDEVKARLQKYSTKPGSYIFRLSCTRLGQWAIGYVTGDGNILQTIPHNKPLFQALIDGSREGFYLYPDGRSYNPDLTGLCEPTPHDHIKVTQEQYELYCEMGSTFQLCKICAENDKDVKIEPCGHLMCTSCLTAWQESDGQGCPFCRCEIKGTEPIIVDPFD

As to `C[C@H](NCc1cc(C(=O)Nc2cncc([C@]3(c4nncn4C)C[C@@H](C)C3)c2)c2ncc(F)n2c1)C1CC1` [Compound A72, 6-({[(1S)-1-cyclopropylethyl]amino}methyl)-3-fluoro-N-{5-[(1r, 3s)-3-methyl-1-(4-methyl-1,2,4-triazol-3-yl)cyclobutyl]pyridin-3-yl}imidazo[1,2-a]pyridine-8-carboxamide], the figures for the IC50 at Cbl (aa49-434) and on Cbl-b (aa36-427) were 0.6 nM and 0.4 nM, respectively.
As to `C[C@H](NCc1cc(C(=O)Nc2cccc([C@]3(c4nncn4C)C[C@@H](CC#N)C3)c2)nc2c1NCC2(C)C)C1CC1` [Compound C27, 7-({[(1S)-1-cyclopropylethyl]amino}methyl)-3,3-dimethyl-N-{3-[(1s, 3s)-3-(cyanomethyl)-1-(4-methyl-1,2,4-triazol-3-yl)cyclobutyl]phenyl}-1H,2H-pyrrolo[3,2-b]pyridine-5-carboxamide], the IC50 on Cbl (aa49-434) amounted to 3.5 nM; on Cbl-b (aa36-427), 1 nM.
For the compound `Cn1cnnc1[C@]1(c2cncc(NC(=O)c3cc(CNC4(C)CC4)cn4ccnc34)c2)C[C@H](C)C1` [Compound A75, N-(5-((1s, 3s)-3-methyl-1-(4-methyl-4H-1,2,4-triazol-3-yl)cyclobutyl)pyridin-3-yl)-6-(((1-methylcyclopropyl)amino)methyl)imidazo[1,2-a]pyridine-8-carboxamide], the values for the IC50 at Cbl (aa49-434) and on Cbl-b (aa36-427) were 5.5 nM and 1.7 nM, respectively.
On the same counts, the results for `C[C@H]1CCCN(Cc2cc(C(=O)Nc3cccc([C@]4(Cc5nncn5C)C[C@H](C#N)C4)c3)nc3c2CCC3(C)C)C1` [Compound C18, N-(3-((1s,3R)-3-cyano-1-((4-methyl-4H-1,2,4-triazol-3-yl)methyl)cyclobutyl)phenyl)-7,7-dimethyl-4-(((S)-3-methylpiperidin-1-yl)methyl)-6,7-dihydro-5H-cyclopenta[b]pyridine-2-carboxamide] are 3.1 nM and 1.4 nM.
For `CC[C@H](C)NCc1cc(C(=O)Nc2cncc([C@]3(c4nncn4C)C[C@@H](C)C3)c2)c2nccn2c1` [Compound A49, 6-((((S)-sec-butyl)amino)methyl)-N-(5-((1s,3R)-3-methyl-1-(4-methyl-4H-1,2,4-triazol-3-yl)cyclobutyl)pyridin-3-yl)imidazo[1,2-a]pyridine-8-carboxamide], the results for the IC50 at Cbl (aa49-434) and at Cbl-b (aa36-427) were 11.9 nM and 3 nM, respectively.
For the compound `Cn1cnnc1[C@]1(c2cccc(NC(=O)c3cc(CNC4(C)CCC4)cn4c(F)cnc34)c2)C[C@H](CC#N)C1` [Compound A61, N-(3-((1s, 3s)-3-(cyanomethyl)-1-(4-methyl-4H-1,2,4-triazol-3-yl)cyclobutyl)phenyl)-3-fluoro-6-(((1-methylcyclobutyl)amino)methyl)imidazo[1,2-a]pyridine-8-carboxamide], the IC50 was 11.1 nM at Cbl (aa49-434) and 1.2 nM on Cbl-b (aa36-427).
On the same counts, the results for `Cn1cnnc1[C@]1(c2cncc(NC(=O)c3cc(CNC4(C)CC4)cn4ncnc34)c2)C[C@H](C)C1` [Compound A88, N-(5-((1s, 3s)-3-methyl-1-(4-methyl-4H-1,2,4-triazol-3-yl)cyclobutyl)pyridin-3-yl)-6-(((1-methylcyclopropyl)amino)methyl)-[1,2,4]triazolo[1,5-a]pyridine-8-carboxamide] are 20 nM and 4.4 nM.
As for `Cn1cnnc1[C@]1(c2cccc(NC(=O)c3cc(CNC4(C)CCC4)c4c(n3)C3(CC3)CN4)c2)C[C@H](CC#N)C1` [Compound C31, N-(3-((1s, 3s)-3-(cyanomethyl)-1-(4-methyl-4H-1,2,4-triazol-3-yl)cyclobutyl)phenyl)-7′-(((1-methylcyclobutyl)amino)methyl)-1′,2′-dihydrospiro[cyclopropane-1,3′-pyrrolo[3,2-b]pyridine]-5′-carboxamide], the IC50 on Cbl (aa49-434) stood at 17 nM; on Cbl-b (aa36-427), 3.9 nM.
Regarding `Cn1cnnc1[C@]1(c2cccc(NC(=O)c3cc(CNCC4CCC(F)(F)CC4)c4c(n3)C(C)(C)CO4)c2)C[C@H](CC#N)C1` [Compound C20, N-(3-((1s, 3s)-3-(cyanomethyl)-1-(4-methyl-4H-1,2,4-triazol-3-yl)cyclobutyl)phenyl)-7-((((4,4-difluorocyclohexyl)methyl)amino)methyl)-3,3-dimethyl-2,3-dihydrofuro[3,2-b]pyridine-5-carboxamide], the IC50 at Cbl (aa49-434) came to 79 nM; at Cbl-b (aa36-427) it was 6.9 nM.
As to `Cn1cnnc1[C@]1(c2cccc(NC(=O)c3cc(CNCC4(C)CCCC4)cn4c(Cl)cnc34)c2)C[C@H](CC#N)C1` [Compound A28, 3-chloro-N-(3-((1s, 3s)-3-(cyanomethyl)-1-(4-methyl-4H-1,2,4-triazol-3-yl)cyclobutyl)phenyl)-6-((((1-methylcyclopentyl)methyl)amino)methyl)imidazo[1,2-a]pyridine-8-carboxamide], the IC50 on Cbl (aa49-434) is 2.4 nM; at Cbl-b (aa36-427), 1 nM.
Regarding `Cc1cnc2c(C(=O)Nc3cncc([C@]4(c5nncn5C)C[C@@H](C)C4)c3)cc(CN[C@@H](C)C3CC3)cn12` [Compound A64, 6-((((S)-1-cyclopropylethyl)amino)methyl)-3-methyl-N-(5-((1s,3R)-3-methyl-1-(4-methyl-4H-1,2,4-triazol-3-yl)cyclobutyl)pyridin-3-yl)imidazo[1,2-a]pyridine-8-carboxamide], the IC50 was 26 nM on Cbl (aa49-434) and 2.2 nM on Cbl-b (aa36-427).
As for `Cn1cnnc1CC1(c2cccc(NC(=O)c3cc(CN4CCCC(C(F)(F)F)C4)c4[nH]ccc4n3)c2)COC1` (centres unmarked) [Compound B9, N-(3-(3-((4-methyl-4H-1,2,4-triazol-3-yl)methyl)oxetan-3-yl)phenyl)-7-((3-(trifluoromethyl)piperidin-1-yl)methyl)-1H-pyrrolo[3,2-b]pyridine-5-carboxamide], the IC50 on Cbl (aa49-434) was determined as 42.9 nM; at Cbl-b (aa36-427), 25.9 nM.
On the same counts, the results for `Cn1cnnc1[C@]1(c2cccc(NC(=O)c3cc(CNC4(C)CC4)cn4c(F)cnc34)c2)C[C@H](CC#N)C1` [Compound A17, N-(3-((1s, 3s)-3-(cyanomethyl)-1-(4-methyl-4H-1,2,4-triazol-3-yl)cyclobutyl)phenyl)-3-fluoro-6-(((1-methylcyclopropyl)amino)methyl)imidazo[1,2-a]pyridine-8-carboxamide] are 20.7 nM and 0.8 nM.
On to `Cn1cnnc1[C@]1(c2cccc(NC(=O)c3cc(CNC4(C)CCC4)c4c(n3)C(F)(F)CC4)c2)C[C@H](CC#N)C1` [Compound C42, N-(3-((1s, 3s)-3-(cyanomethyl)-1-(4-methyl-4H-1,2,4-triazol-3-yl)cyclobutyl)phenyl)-7,7-difluoro-4-(((1-methylcyclobutyl)amino)methyl)-6,7-dihydro-5H-cyclopenta[b]pyridine-2-carboxamide], for which the IC50 at Cbl (aa49-434) was 25.1 nM; at Cbl-b (aa36-427) it was 1.5 nM.
On the same counts, the results for `C[C@H](NCc1cc(C(=O)Nc2cccc([C@]3(c4nncn4C)C[C@@H](CC#N)C3)c2)nc2c1OCC2(C)C)C1CC1` [Compound C26, N-(3-((1s,3R)-3-(cyanomethyl)-1-(4-methyl-4H-1,2,4-triazol-3-yl)cyclobutyl)phenyl)-7-((((S)-1-cyclopropylethyl)amino)methyl)-3,3-dimethyl-2,3-dihydrofuro[3,2-b]pyridine-5-carboxamide] are 25 nM and 2.3 nM.
On the same counts, the results for `Cn1cnnc1[C@]1(c2cccc(NC(=O)c3cc(CN[C@H]4CCC(F)(F)C4)c4[nH]ccc4n3)c2)C[C@H](CC#N)C1` [Compound B17, N-(3-((1s,3S)-3-(cyanomethyl)-1-(4-methyl-4H-1,2,4-triazol-3-yl)cyclobutyl)phenyl)-7-((((R)-3,3-difluorocyclopentyl)amino)methyl)-1H-pyrrolo[3,2-b]pyridine-5-carboxamide] are 3.84 nM and 1.22 nM.
Take `Cc1cnc2c(C(=O)Nc3cncc([C@]4(c5nncn5C)C[C@@H](C)C4)c3)cc(CN[C@H]3C[C@@H](C)C3)cn12` [Compound A86, 3-methyl-N-(5-((1s, 3s)-3-methyl-1-(4-methyl-4H-1,2,4-triazol-3-yl)cyclobutyl)pyridin-3-yl)-6-((((1s, 3s)-3-methylcyclobutyl)amino)methyl)imidazo[1,2-a]pyridine-8-carboxamide]: the IC50 was 13 nM at Cbl (aa49-434) and 2.7 nM on Cbl-b (aa36-427).
In the case of `Cn1cnnc1[C@]1(c2cncc(NC(=O)c3cc(CNC4(C)CC4)cc4c(F)cnn34)c2)C[C@H](C)C1` [Compound A93, 3-fluoro-N-(5-((1s, 3s)-3-methyl-1-(4-methyl-4H-1,2,4-triazol-3-yl)cyclobutyl)pyridin-3-yl)-5-(((1-methylcyclopropyl)amino)methyl)pyrazolo[1,5-a]pyridine-7-carboxamide], the IC50 on Cbl (aa49-434) was 5.2 nM; on Cbl-b (aa36-427) it was 1.6 nM.
For the compound `Cn1cnnc1[C@]1(c2cccc(NC(=O)c3cc(CNC4(C)CCC4)cn4ccnc34)c2)C[C@H](C)C1` [Compound A39, N-(3-((1s, 3s)-3-methyl-1-(4-methyl-4H-1,2,4-triazol-3-yl)cyclobutyl)phenyl)-6-(((1-methylcyclobutyl)amino)methyl)imidazo[1,2-a]pyridine-8-carboxamide], the IC50 is 14.1 nM on Cbl (aa49-434) and 2.7 nM at Cbl-b (aa36-427).
